Source: patent publication US8318217B2, “Compositions comprising an anti-inflammatory blend” (Johnson & Johnson Consumer Companies, Inc., priority 2009, dated 2012)
In brackets after ≈: the same amount, converted by molar mass. Where two headings read alike, the source gives them in different places.

Tests used:
NFκB = assay: NFκB-INHIBITION TEST (NF-κB gene reporter, TNFα-stimulated FB293 cells); assay type: cell-based, human; settings: for NF-κB Gene Reporter Activation (Luminescence, L): 24 h; for NF-κB inhibition (in words): summary of Table 1; for NF-KB Activity (10 ug/ml): Tables 3a and 3b
Protocol: As used herein, “NFκB-inhibitor” means a compound that inhibits the cell transcription factor nuclear kappa-B (NFκB). […] The compound need not provide the recited Percent NFκB Inhibition at all concentrations from 1 microgram per milliliter to 100 micrograms per milliliter, but provides the recited Percent NFκB Inhibition at least one concentration in this range.
The NFκB-INHIBITION TEST is conducted in the following manner. FB293 cells, a stable transfected human epithelial cell line containing the gene reporter for NF-κB are used. They may be obtained from, e.g., Panomics (Fremont, Calif.). FB293 are plated at a density of 5×10^4 cells/mL in a suitable medium, e.g., Dulbecco's modified Eagle's medium (DMEM) supplemented with 10% fetal bovine serum (Invitrogen, San Diego, Calif.). The FB293 cells are stimulated with 100 ng/mL of Tumor Necrosis Factor-α (TNFα, available from Sigma-Aldrich of St Louis, Mo.) in the presence of the test sample. Separately, a control sample is tested wherein no test sample is applied. Following a 24-hour incubation at 37° C. with 5% CO2, cells are lysed with 40 μl of reporter lysis buffer (Promega, Madison, Wis.). A 20-μl aliquot of the lysate is assayed using a luciferase assay kit (Promega) and counted for 10 s in a Lmax luminometer (Molecular Devices, Sunnyvale, Calif.) with the data represented as the relative light unit/second. Percent NFκB Inhibition of the test sample is calculated as: NFκB Inhibition=[1−(Lsample/Lcontrol)]*100 where Lsample is the luminescence of the sample and Lcontrol is the luminescence of the control.
The NFκB-INHIBITION TEST described above was performed on test samples of Bay 11-7082 (Sigma-Aldrich, St. Louis, Mo.), Tetrahydrocurcuminoids CG (Sabinsa Corporation, Piscataway, N.J.), as well as various concentrations of 4-hexylresorcinol.
The NFκB-INHIBITION TEST described above was performed on a series of substituted resorcinols each having a concentration of 10 μg/ml.

IL-1α = IL-1α ASSAY (IL-1α cytokine release in KB cells); assay type: cell-based, human; settings: for Increase in IL-1α over untreated control (normalized): normalized to 4-hexylresorcinol 20 μg/mL
Protocol: An IL-1α ASSAY was performed on a plurality of agents to investigate the release of the pro-inflammatory mediator, IL-1α cytokine, in human epithelial cells.
(§1) The IL-1α ASSAY was conducted as follows. KB cells were obtained from ATCC (ATCC#CCL-17, Manassas, Va.) and were plated in 96-well tissue culture treated plates at a density of 5000 cells/well in Dulbecco's modified Eagle's medium (DMEM) supplemented with 10% fetal bovine serum (Invitrogen Corp., San Diego, Calif.). After 48 hours, cells were treated with the agents described below at indicated concentrations for 24 hours, following which supernatants were collected and analyzed for IL-1α cytokine release using commercially available kits (Millipore Corp., Billerica, Mass.).
Further IL-1α ASSAYS as described in Example 5 were performed. For ease of comparison, reported increases in IL-1α for 4-hexylresorcinol, phloretin, and combinations thereof were normalized to 4-hexylresorcinol (20 μg/mL, Comparative Example 2). Reported increases in IL-1α for tetrahydrocurcuminoids, feverfew, and combinations thereof were normalized to tetrahydrocurcuminoids (20 μg/mL, Comparative Example 3).
Further IL-1α ASSAYS as described in Example 5 were performed. For ease of comparison, reported increases in IL-1α were normalized to 4-hexylresorcinol (20 μg/mL, Comparative Example 2).

IL-8 = IL-8 ASSAY (IL-8 cytokine release in KB cells); assay type: cell-based, human
Protocol: as §1
An IL-8 ASSAY was performed on a series of compositions using the method described in Example 5, except that the cytokine analyzed for was IL-8. Percent reduction in IL-8 was calculated for each sample. For samples containing a combination of an NF-κB inhibitor and an anti-inflammatory compound, the percent reduction in IL-8 relative to the percent reduction in IL-8 for the corresponding dose of anti-inflammatory compound is reported.

Interleukin-2 = assay: ANTI-INFLAMMATORY ASSAY (cytokine production by PHA-stimulated human lymphocytes); assay type: cell-based; settings: PHA 10 μg/mL stimulated human leukocytes, 48 h
Protocol: The ANTI-INFLAMMATORY ASSAY assesses the ability of an agent to reduce the production of cytokines by human lymphocytes stimulated with the T-cell receptor (TCR) activating agent phytohaemagglutinin (PHA), and is conducted in the following manner. Human leukocytes are collected from a healthy adult […] via leukopheresis, and adjusted to a density of 1×10^6 cells/mL in serum free lymphocyte growth medium (ExVivo-15, Biowhittaker, Walkersville, Md.). PBLs are stimulated with 10 μg/mL PHA in the presence or absence of test samples following published methods (Hamamoto Y., et al. Exp Dermatol 2:231-235, 1993). Following a 48-hour incubation at 37° C. with 5% CO2, the supernatant is removed and evaluated for cytokine content using commercially available multiplex cytokine detection kit.

[1] = Homo sapiens, 10 μg/ml, series of substituted resorcinols, Table 2, read-out: Percent NF-κB Inhibition
[2] = Homo sapiens, read-out: Percent NF-κB Inhibition
[3] = Homo sapiens, read-out: Percent NFκB Inhibition

## CCCCCCCCCCCCc1ccc(O)cc1O [4-Dodecylresorcinol]
NFκB; [1]
  inhibition at 10 µg/mL: 20.9%

## CCCCCCCCCCCC1c2cc(c(O)cc2O)C(CCCCCCCCCCC)c2cc(c(O)cc2O)C(CCCCCCCCCCC)c2cc(c(O)cc2O)C(CCCCCCCCCCC)c2cc1c(O)cc2O (stereo not shown) [C-Undecylcalix[4]-resorcinarene]
NFκB; 10 μg/ml, series of substituted resorcinols, Table 2
  Percent NF-κB Inhibition: 4.87%

## O=Nc1ccc(O)c(N=O)c1O [2,4-Dinitrosorcinol]
NFκB; [2]
  inhibition at 10 µg/mL: 51.8%

## CCCCCCc1ccc(O)cc1O [4-Hexylresorcinol]
NFκB; 1 μg/ml, TNFα 100 ng/ml stimulated FB293 cells
  NF-κB Gene Reporter Activation (Luminescence, L): 106.1 ± 1.9
NFκB; 5 μg/ml, TNFα 100 ng/ml stimulated FB293 cells
  NF-κB Gene Reporter Activation (Luminescence, L): 55.1 ± 1.7
NFκB; 10 μg/ml, TNFα 100 ng/ml stimulated FB293 cells
  NF-κB Gene Reporter Activation (Luminescence, L): 29.3 ± 9.2
NFκB; 50 μg/ml, TNFα 100 ng/ml stimulated FB293 cells, relative light unit/second per method
  NF-κB Gene Reporter Activation (Luminescence, L): 9.3 ± 0.9
NFκB; [2]
  inhibition at 10 µg/mL: 92.4%
NFκB; [3]
  inhibition at 1 µg/mL: 1.9%
  inhibition at 5 µg/mL: 50.9%
  inhibition at 10 µg/mL: 72.9%
  inhibition at 50 µg/mL: 91.4%
NFκB
  NF-κB inhibition (in words): substantial reduction in NFκB activation
IL-1α; 20 μg/mL, 24 h, KB cells, untreated 0.72
  Mean of IL-1α Release: 21.34 pg/mL
IL-1α; single agent 20 μg/mL, Table 6
  Increase in IL-1α over untreated control (normalized): 100
IL-1α; single agent 20 μg/mL, Table 7
  Increase in IL-1α over untreated control (normalized): 100
IL-1α; summary of Table 5
  release of cytokine IL-1α (in words): can increase the release of cytokine IL-1α
IL-8; single agent 10 μg/mL, untreated 84.46, Table 9
  Mean of IL-8 Release: 73.23 pg/mL
IL-8; single agent 20 μg/mL, untreated 46.05, Table 8
  Mean of IL-8 Release: 14.58 pg/mL
IL-8; single agent 20 μg/mL, untreated 84.46, Table 9
  Mean of IL-8 Release: 27.05 pg/mL

## O=C(CCc1ccc(O)cc1)c1c(O)cc(O)cc1O [Phloretin]
NFκB
  NF-KB Activity (10 ug/ml): 0%
Interleukin-2; Leukocyte, read-out: Anti-Inflammatory Activity (IC50 ug/ml)
  IC50: 19.9 µg/mL (≈ 72.6 µM)
IL-1α; single agent 10 μg/mL, Table 6
  Increase in IL-1α over untreated control (normalized): 3.82
IL-1α; single agent 50 μg/mL, Table 6
  Increase in IL-1α over untreated control (normalized): 2.39
IL-1α; single agent 100 μg/mL, Table 6
  Increase in IL-1α over untreated control (normalized): 3.34

## CC1CCCC(O)CCCCCc2cc(O)cc(O)c2C(=O)O1 (stereo not drawn) [β-Zearalanol]
NFκB; [2]
  inhibition at 10 µg/mL: 76.6%

## Cc1ccc(S(=O)(=O)/C=C/C#N)cc1 [Bay 11-7082, (E)-3-(4-methylphenylsulfonyl)-2-propenenitrile, reference compound]
NFκB; 25 uM, FB293 cells
  NF-κB Gene Reporter Activation (Luminescence, L): 11.3 ± 5.6
NFκB; Homo sapiens, 25 uM, Table 1, read-out: Percent NFκB Inhibition
  inhibition at 25 µM: 89.5%
NFκB
  NF-κB inhibition (in words): strong NF-κB inhibition

## CCC(=O)c1ccc(O)cc1O [2′,4′-Dihydroxypropiophenone]
NFκB; [1]
  inhibition at 10 µg/mL: -0.7%

## O=C(O)/C=C/c1ccc(O)cc1O [2,4-DIHYDROXYCINNAMIC Acid]
NFκB; [1]
  inhibition at 10 µg/mL: -1.7%

## Oc1ccc(Cl)c(O)c1 [4-Chloroesorcinol]
NFκB; [1]
  inhibition at 10 µg/mL: 51.6%

## Madecassoside [reference compound]
NFκB
  NF-KB Activity (10 ug/ml): 0%
Interleukin-2
  Anti-Inflammatory Activity (IC50 ug/ml): 77.3 µg/mL
IL-1α; single agent 10 μg/mL, Table 7
  Increase in IL-1α over untreated control (normalized): 43.02
IL-1α; single agent 50 μg/mL, Table 7
  Increase in IL-1α over untreated control (normalized): 41.59
IL-1α; single agent 100 μg/mL, Table 7
  Increase in IL-1α over untreated control (normalized): 44.24

## COc1cccc(O)c1 [3-Methoxyphenol, reference compound]
NFκB; [1]
  inhibition at 10 µg/mL: 0%

## CC1CCCC(=O)CCCCCc2cc(O)cc(O)c2C(=O)O1 (stereo not shown) [Zearalanone]
NFκB; [2]
  inhibition at 10 µg/mL: 51%

## CCCCCC(=O)c1ccc(O)cc1O [4-Caproylresorcinol]
NFκB; [1]
  inhibition at 10 µg/mL: 10.2%

## Oc1ccc(CCc2ccccc2)c(O)c1 [Phenethylresorinol]
NFκB; [1]
  inhibition at 10 µg/mL: 31.8%

## C=CC(C)(C)c1cc(/C=C/C(=O)c2ccc(O)cc2)c(OC)cc1O [Licochalcone]
NFκB
  NF-KB Activity (10 ug/ml): 0%
Interleukin-2
  Anti-Inflammatory Activity (IC50 ug/ml): 54.1 µg/mL

## COc1cccc(OC)c1 [1,3-Dimethoxybenzene, reference compound]
NFκB; [1]
  inhibition at 10 µg/mL: -1.7%

## CCCCCCCCc1ccc(O)cc1O [4-Octylresorcinol]
NFκB; [1]
  inhibition at 10 µg/mL: 99.5%

## C[C@H]1CCC[C@@H](O)CCC/C=C/c2cc(O)cc(O)c2C(=O)O1 [β-Zearalenol]
NFκB; [2]
  inhibition at 10 µg/mL: 87.1%
